Reference: patent publication US20100292231A1, “Indazole Compounds for Treating Inflammatory Disorders, Demyelinating Disorders and Cancers” (priority 2007, published 2010)
Like-named read-outs stand apart in the source and are kept apart here.

Assays:
Assay in all cases: SelectScreen kinase specificity survey
Format in all cases: biochemical
[1] = biological target: T1, BRSK1 (SAD1) (Homo sapiens, UniProt Q8TDC3)
T1 construct: purchased Invitrogen, Inc. (SelectScreen platform)
How it was run: (§1)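 230-kinase panel; kinase-specific substrate plus optical reporter; ATP 100 micromolar; 5-point inhibitor titration; 4-parameter Hill fit gives estimated EC50.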

[2] = biological target: T2, CLK1 (Homo sapiens, UniProt P49759); details: estimated, abridged dose response curve, read-out: Kinase inhibitory activity EC50
T2 construct: purchased Invitrogen (SelectScreen platform)
How it was run: as §1

[3] = biological target: T3, ADRBK2 (BARK2, GRK3) (Homo sapiens, UniProt P35626)
T3 construct: purchased Invitrogen (SelectScreen platform)
T3 sequence (P35626 whole entry): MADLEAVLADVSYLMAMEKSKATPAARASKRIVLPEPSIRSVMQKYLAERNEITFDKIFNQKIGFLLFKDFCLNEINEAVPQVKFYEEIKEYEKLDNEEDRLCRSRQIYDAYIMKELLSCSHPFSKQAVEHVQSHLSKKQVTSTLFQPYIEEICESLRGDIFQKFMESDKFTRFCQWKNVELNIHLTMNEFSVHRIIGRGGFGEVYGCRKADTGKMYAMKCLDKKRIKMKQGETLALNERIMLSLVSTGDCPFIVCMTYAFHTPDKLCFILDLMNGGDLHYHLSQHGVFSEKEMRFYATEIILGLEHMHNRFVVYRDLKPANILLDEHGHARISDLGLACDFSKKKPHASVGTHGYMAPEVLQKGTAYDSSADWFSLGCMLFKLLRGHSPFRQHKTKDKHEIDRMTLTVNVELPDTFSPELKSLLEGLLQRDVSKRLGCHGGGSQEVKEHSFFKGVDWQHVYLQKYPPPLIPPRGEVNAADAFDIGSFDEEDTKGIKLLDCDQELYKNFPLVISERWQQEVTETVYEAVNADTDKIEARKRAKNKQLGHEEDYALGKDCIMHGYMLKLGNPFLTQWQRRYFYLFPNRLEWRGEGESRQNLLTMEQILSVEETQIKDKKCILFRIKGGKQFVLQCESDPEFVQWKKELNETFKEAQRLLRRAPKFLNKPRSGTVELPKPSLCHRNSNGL
How it was run: as §1

[4] = biological target: T4, SRC (Homo sapiens, UniProt P12931); details: estimated, abridged dose response curve, read-out: Kinase inhibitory activity EC50
T4 construct: purchased Invitrogen (SelectScreen)
How it was run: as §1

[5] = biological target: T5, CDK5/p25 (Homo sapiens, UniProt Q00535); details: estimated, abridged dose response curve, read-out: Kinase inhibitory activity EC50
T5 construct: purchased Invitrogen (SelectScreen platform)
How it was run: as §1

[6] = biological target: T6, FGFR3 K650E (Homo sapiens, UniProt P22607, K650E); details: estimated, abridged dose response curve, read-out: Kinase inhibitory activity EC50
T6 construct: purchased Invitrogen (SelectScreen platform)
How it was run: as §1

[7] = biological target: T7, PLK3 (Homo sapiens, UniProt Q9H4B4); details: estimated, abridged dose response curve, read-out: Kinase inhibitory activity EC50
T7 construct: purchased Invitrogen, Inc. (SelectScreen service)
T7 sequence (Q9H4B4 whole entry): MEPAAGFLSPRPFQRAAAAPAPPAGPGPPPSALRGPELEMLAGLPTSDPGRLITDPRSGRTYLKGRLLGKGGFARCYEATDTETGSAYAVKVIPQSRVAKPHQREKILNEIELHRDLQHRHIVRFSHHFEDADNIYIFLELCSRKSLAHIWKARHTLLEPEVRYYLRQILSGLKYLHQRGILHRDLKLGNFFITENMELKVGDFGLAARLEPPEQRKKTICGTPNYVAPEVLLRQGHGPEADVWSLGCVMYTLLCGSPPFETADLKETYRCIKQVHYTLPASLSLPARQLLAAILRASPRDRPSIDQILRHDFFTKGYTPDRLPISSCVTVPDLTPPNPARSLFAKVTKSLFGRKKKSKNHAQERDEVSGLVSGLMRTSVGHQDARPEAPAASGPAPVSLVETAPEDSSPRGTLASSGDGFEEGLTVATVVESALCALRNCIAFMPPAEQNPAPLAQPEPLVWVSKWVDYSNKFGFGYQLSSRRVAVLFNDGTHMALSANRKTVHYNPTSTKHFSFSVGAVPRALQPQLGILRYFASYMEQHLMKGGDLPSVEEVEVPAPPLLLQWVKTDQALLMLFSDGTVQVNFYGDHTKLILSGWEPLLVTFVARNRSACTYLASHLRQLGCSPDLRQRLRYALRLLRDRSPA
How it was run: as §1

[8] = biological target: T8, PRKD2 (PKD2) (Homo sapiens, UniProt Q9BZL6); details: estimated, abridged dose response curve, read-out: Kinase inhibitory activity EC50
T8 construct: purchased Invitrogen, Inc. (SelectScreen platform)
How it was run: as §1

[9] = biological target: T9, SRPK2 (Homo sapiens, UniProt P78362); details: estimated, abridged dose response curve, read-out: Kinase inhibitory activity EC50
T9 construct: purchased Invitrogen, Inc. (SelectScreen service)
T9 sequence (P78362 whole entry): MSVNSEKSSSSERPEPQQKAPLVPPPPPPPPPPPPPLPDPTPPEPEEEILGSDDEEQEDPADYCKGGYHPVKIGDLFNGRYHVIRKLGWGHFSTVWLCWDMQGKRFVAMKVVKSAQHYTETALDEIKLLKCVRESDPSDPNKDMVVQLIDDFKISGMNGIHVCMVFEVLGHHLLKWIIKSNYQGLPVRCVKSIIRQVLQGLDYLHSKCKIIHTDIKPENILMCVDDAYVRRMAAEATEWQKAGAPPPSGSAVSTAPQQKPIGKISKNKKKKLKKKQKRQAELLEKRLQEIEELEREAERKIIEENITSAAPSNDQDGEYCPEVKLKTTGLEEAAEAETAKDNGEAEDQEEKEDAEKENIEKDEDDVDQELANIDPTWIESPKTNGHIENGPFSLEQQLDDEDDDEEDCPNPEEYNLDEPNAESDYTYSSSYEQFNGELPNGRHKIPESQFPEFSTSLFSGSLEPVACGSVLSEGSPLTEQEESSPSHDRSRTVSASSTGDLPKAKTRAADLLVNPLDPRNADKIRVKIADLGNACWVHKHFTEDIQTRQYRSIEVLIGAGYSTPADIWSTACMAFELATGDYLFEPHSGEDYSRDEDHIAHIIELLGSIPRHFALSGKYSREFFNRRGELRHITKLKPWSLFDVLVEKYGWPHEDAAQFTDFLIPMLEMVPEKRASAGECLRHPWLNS
How it was run: as §1

[10] = biological target: T10, RET Y791F (Homo sapiens, UniProt P07949, Y791F); details: estimated, abridged dose response curve, read-out: Kinase inhibitory activity EC50
T10 construct: purchased Invitrogen (SelectScreen)
T10 sequence (P07949 29-1114 Y791F): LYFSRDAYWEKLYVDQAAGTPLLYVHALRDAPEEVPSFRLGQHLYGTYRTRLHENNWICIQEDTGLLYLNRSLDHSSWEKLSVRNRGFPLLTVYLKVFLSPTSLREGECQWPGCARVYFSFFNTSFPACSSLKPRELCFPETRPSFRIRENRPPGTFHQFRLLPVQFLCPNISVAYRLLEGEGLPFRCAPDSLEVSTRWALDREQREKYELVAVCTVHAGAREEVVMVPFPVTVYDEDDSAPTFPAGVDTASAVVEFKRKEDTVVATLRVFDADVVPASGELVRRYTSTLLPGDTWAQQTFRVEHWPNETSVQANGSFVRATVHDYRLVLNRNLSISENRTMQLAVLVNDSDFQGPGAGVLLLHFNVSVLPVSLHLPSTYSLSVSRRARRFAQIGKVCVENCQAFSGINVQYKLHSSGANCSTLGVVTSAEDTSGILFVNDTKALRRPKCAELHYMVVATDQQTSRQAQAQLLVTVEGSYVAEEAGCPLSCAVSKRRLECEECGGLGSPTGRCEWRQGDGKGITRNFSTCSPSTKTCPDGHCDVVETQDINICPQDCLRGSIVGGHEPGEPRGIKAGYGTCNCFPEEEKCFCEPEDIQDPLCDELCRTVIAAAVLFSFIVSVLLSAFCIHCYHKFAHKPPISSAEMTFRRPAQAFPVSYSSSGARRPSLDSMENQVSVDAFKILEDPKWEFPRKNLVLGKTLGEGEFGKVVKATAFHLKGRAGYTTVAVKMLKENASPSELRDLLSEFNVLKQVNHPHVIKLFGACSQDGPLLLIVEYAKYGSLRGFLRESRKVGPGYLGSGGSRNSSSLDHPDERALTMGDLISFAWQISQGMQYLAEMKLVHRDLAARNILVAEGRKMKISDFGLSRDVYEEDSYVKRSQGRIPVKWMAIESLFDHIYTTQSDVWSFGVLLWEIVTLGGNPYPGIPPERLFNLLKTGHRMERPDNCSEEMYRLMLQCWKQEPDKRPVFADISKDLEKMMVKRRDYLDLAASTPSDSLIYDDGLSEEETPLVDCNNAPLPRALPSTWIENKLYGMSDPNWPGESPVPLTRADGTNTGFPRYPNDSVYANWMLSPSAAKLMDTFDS
How it was run: as §1

[11] = biological target: T11, IKBKB (IKK beta) (Homo sapiens, UniProt O14920); details: estimated, abridged dose response curve, read-out: Kinase inhibitory activity EC50
T11 construct: purchased Invitrogen, Inc. (SelectScreen service)
How it was run: as §1

[12] = biological target: T12, CHEK1 (CHK1) (Homo sapiens, UniProt O14757); details: estimated, abridged dose response curve, read-out: Kinase inhibitory activity EC50
T12 construct: purchased Invitrogen, Inc. (SelectScreen platform)
How it was run: as §1

[13] = biological target: T13, BRAF (Homo sapiens, UniProt P15056); details: estimated, abridged dose response curve, read-out: Kinase inhibitory activity EC50
T13 construct: purchased Invitrogen, Inc. (SelectScreen platform)
How it was run: as §1

[14] = biological target: T14, ABL2 (Arg) (Homo sapiens, UniProt P42684); details: estimated, abridged dose response curve, read-out: Kinase inhibitory activity EC50
T14 construct: purchased Invitrogen (SelectScreen platform)
How it was run: as §1

[15] = biological target: T15, BMX (Homo sapiens, UniProt P51813); details: estimated, abridged dose response curve, read-out: Kinase inhibitory activity EC50
T15 construct: purchased Invitrogen (SelectScreen)
How it was run: as §1

[16] = biological target: T16, PAK3 (Homo sapiens, UniProt O75914); details: estimated, abridged dose response curve, read-out: Kinase inhibitory activity EC50
T16 construct: purchased Invitrogen (SelectScreen platform)
T16 sequence (O75914 whole entry): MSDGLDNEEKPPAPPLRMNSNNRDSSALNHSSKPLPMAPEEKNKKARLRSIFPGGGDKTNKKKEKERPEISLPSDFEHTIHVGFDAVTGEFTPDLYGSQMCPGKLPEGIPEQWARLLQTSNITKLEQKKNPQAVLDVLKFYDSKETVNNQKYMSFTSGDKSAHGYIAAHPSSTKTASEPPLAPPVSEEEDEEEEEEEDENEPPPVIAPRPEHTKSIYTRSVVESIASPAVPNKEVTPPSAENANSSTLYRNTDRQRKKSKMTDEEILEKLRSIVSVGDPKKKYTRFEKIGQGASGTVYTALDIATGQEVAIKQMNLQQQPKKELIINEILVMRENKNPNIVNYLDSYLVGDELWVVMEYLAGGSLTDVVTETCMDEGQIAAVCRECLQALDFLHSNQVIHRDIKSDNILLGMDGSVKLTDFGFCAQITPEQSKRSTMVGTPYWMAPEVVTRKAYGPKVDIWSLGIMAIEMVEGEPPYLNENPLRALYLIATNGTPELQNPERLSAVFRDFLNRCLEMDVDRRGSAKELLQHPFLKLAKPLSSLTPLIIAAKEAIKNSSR
How it was run: as §1

[17] = biological target: T17, DYRK4 (Homo sapiens, UniProt Q9NR20)
T17 construct: purchased Invitrogen (SelectScreen platform)
T17 sequence (Q9NR20 whole entry): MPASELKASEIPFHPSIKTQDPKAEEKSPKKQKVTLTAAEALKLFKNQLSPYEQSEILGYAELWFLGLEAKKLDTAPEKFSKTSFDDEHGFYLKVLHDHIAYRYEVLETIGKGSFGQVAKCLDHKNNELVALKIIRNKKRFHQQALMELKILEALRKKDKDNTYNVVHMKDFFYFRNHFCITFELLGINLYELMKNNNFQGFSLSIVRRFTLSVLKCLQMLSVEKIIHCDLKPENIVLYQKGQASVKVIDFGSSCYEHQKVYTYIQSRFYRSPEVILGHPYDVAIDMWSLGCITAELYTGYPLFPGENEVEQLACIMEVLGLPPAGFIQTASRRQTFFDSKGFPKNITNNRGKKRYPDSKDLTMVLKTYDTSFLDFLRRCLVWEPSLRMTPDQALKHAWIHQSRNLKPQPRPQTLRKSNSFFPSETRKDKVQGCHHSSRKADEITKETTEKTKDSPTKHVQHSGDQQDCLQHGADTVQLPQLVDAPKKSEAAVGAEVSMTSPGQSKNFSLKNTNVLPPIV
How it was run: as §1

[18] = biological target: T18, PDK1 (Homo sapiens, UniProt O15530); details: estimated, abridged dose response curve, read-out: Kinase inhibitory activity EC50
T18 construct: purchased Invitrogen (SelectScreen platform)
How it was run: as §1

[19] = biological target: T19, MAP3K8 (COT) (Homo sapiens, UniProt P41279); details: estimated, abridged dose response curve, read-out: Kinase inhibitory activity EC50
T19 construct: purchased Invitrogen, Inc. (SelectScreen service)
How it was run: as §1

[20] = biological target: T20, AMPK A1/B1/G1 (Homo sapiens, UniProt P54619+Q13131+Q9Y478); details: estimated, abridged dose response curve, read-out: Kinase inhibitory activity EC50
T20 construct: purchased Invitrogen, Inc. (SelectScreen platform)
How it was run: as §1

[21] = biological target: T21, EPHA3 (Homo sapiens, UniProt P29320); details: estimated, abridged dose response curve, read-out: Kinase inhibitory activity EC50
T21 construct: purchased Invitrogen (SelectScreen service)
How it was run: as §1

[22] = biological target: T22, DYRK1A (Homo sapiens, UniProt Q13627); details: estimated, abridged dose response curve, read-out: Kinase inhibitory activity EC50
T22 construct: purchased Invitrogen (SelectScreen platform)
How it was run: as §1

[23] = biological target: T23, MAPK10 (JNK3) (Homo sapiens, UniProt P53779); details: estimated, abridged dose response curve, read-out: Kinase inhibitory activity EC50
T23 construct: purchased Invitrogen (SelectScreen platform)
How it was run: as §1

T1 sequence (Q8TDC3 whole entry): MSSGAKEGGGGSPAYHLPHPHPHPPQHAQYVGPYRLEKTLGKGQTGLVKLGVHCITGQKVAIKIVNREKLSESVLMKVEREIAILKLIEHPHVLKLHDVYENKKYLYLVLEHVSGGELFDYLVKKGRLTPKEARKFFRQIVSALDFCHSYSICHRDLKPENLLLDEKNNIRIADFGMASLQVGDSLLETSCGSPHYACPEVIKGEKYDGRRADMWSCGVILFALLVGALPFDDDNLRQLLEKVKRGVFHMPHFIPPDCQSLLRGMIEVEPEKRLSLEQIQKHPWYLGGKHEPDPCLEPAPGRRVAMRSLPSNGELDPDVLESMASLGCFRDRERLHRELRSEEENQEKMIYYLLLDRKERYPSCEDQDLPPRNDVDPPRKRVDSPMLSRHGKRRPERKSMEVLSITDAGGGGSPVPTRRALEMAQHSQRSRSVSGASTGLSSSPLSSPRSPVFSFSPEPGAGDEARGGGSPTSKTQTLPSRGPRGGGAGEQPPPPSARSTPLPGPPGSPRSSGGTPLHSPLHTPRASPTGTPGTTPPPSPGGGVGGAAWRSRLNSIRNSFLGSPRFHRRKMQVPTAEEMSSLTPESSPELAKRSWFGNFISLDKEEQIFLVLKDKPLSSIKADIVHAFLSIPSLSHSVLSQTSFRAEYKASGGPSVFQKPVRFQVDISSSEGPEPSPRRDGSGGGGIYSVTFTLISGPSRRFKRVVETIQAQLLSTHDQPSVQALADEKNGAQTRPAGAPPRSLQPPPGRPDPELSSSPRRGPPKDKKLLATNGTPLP

## CN(C)CCCNc1ccc2ncn3c4ccc5[nH]ncc5c4c(=O)c1c23 [Compound (IV)]
[1]; BRSK1 (SAD1), estimated, abridged dose response curve, read-out: Kinase inhibitory activity EC50
  EC50: 1.39 µM
[2]
  EC50: 0.444 µM
[3]; ADRBK2 (BARK2, GRK3), estimated, abridged dose response curve, read-out: Kinase inhibitory activity EC50
  EC50: > 5 µM
[4]
  EC50: 0.437 µM
[5]
  EC50: 1.58 µM
[6]
  EC50: > 5 µM
[7]
  EC50: > 5 µM
[8]
  EC50: 0.759 µM
[9]
  EC50: > 5 µM
[10]
  EC50: 0.627 µM
[11]
  EC50: 2.8 µM
[12]
  EC50: > 5 µM
[13]
  EC50: 1.44 µM
[14]
  EC50: 2.87 µM
[15]
  EC50: 3.23 µM
[16]
  EC50: > 5 µM
[17]; DYRK4, estimated, abridged dose response curve, read-out: Kinase inhibitory activity EC50
  EC50: > 5 µM
[18]
  EC50: 2.9 µM
[19]
  EC50: > 5 µM
[20]
  EC50: > 5 µM
[21]
  EC50: > 5 µM
[22]
  EC50: 0.468 µM
[23]
  EC50: 2.81 µM

## CCN(CC)CCNc1ccc2ncn3c4ccc(O)cc4c(=O)c1c23 [Symadex, 5-(2-(diethylamino)ethylamino)-8-hydroxy-6H-imidazo[4,5,1-de]acridin-6-one, reference compound]
[1]
  EC50: 1.93 µM
[2]
  EC50: 2.18 µM
[3]
  EC50: > 5 µM
[4]
  EC50: 4.41 µM
[5]
  EC50: > 5 µM
[6]
  EC50: > 5 µM
[7]
  EC50: > 5 µM
[8]
  EC50: 0.292 µM
[9]
  EC50: > 5 µM
[10]
  EC50: 1.24 µM
[11]
  EC50: > 5 µM
[12]
  EC50: > 5 µM
[13]
  EC50: 4.45 µM
[14]
  EC50: 3.21 µM
[15]
  EC50: > 5 µM
[16]
  EC50: > 5 µM
[17]
  EC50: > 5 µM
[18]
  EC50: > 5 µM
[19]
  EC50: 4.63 µM
[20]
  EC50: 3.48 µM
[21]
  EC50: > 5 µM
[22]
  EC50: 0.708 µM
[23]
  EC50: > 5 µM
